Source: a melting point compilation (Tetko et al.; mined from patent text by program, amines drawn as free bases though some values may be those of a salt)

Structure (SMILES) | melting point [°C]
CCCNC(=O)[C@@H](C)NC(=O)OCc1ccccc1 | 116 to 120
COc1ccc(-c2sc3ccccc3c2Oc2ccc(OCc3ccccc3)cc2)cc1F | 122 to 123
O=C(O)COc1ccc2c(c1)sc1cc3ccccc3c(-c3ccc(OC(Cc4ccccc4)C(=O)O)cc3)c12 (stereo not given) | 191 to 201
CCOC(=O)NC(C)=N | 111 to 114
CC(=O)Nc1ccc([N+](=O)[O-])c(Cl)c1 | 134 to 136
CCCCOC(=O)C(C)NC(=O)c1cc([N+](=O)[O-])cc([N+](=O)[O-])c1 (stereo not given) | 93 to 96
COc1cc(C=CC(=O)c2ccccc2[N+](=O)[O-])cc(OC)c1 | 98.4 to 98.9
O=C(O)CCCc1cccc(C(=O)c2ccc(Cl)cc2)c1 | 94
CC=COC1=C(O)C(CCC=CCCCCCCCCCCCCCC)OC1=O (stereo not given) | 42 to 45
Nc1ccc(-c2cnc(CSCCOc3ccccc3)o2)cc1 | 110 to 111
NCCc1cc2c(-c3ccccc3)c(CC(=O)Nc3ccc(Cl)cc3C(F)(F)F)c(=O)oc2cc1Cl | 165 to 167
COC(=O)Nc1cc(C(C)(C)C)on1 | 55.5 to 58.5
Cn1nc(-c2ccccc2)c(Sc2ccccc2)c1-c1ccccc1 | 109 to 110
CCCCCCCCCCCCCCCCS(=O)(=O)OCc1cc(OC)c(OC)cc1[N+](=O)[O-] | 81 to 82
O=[N+]([O-])c1cccc2cc(O)c(O)cc12 | 199 to 201
O=C(Nc1ccc(C=C2c3ccccc3CCc3ccccc32)cc1)c1ccncc1 | 252
Cc1cc(O)c(Cc2ccc(C(C)C)cc2)c(C)c1N(Cc1ccccc1)C(=O)CC(C)(C)C | 167 to 168
CCCC(=O)Nc1ccc(O)c(C(=O)C=CN(C)C)c1 | 174

Structure (SMILES) | melting point [°C]
N#CC=C(c1ccccc1C(F)(F)F)c1ccccc1C(F)(F)F | 65 to 68
CC(C)(C)[Si](C)(C)OCCn1nc(CO)cc1CO | 82 to 83
CCOCCn1cc2c(C3C(=O)Nc4ccc(Cl)cc43)nc(Cl)nc2n1 (stereo not given) | > 300
Cc1nc2n(c1C)CCCC2=O | 178
CCCc1nc2c(N)nc3ccccc3c2n1CCCC1(C)OCCO1 | 184 to 186
O=C1C(O)SCN1c1cccc([N+](=O)[O-])c1 (stereo not given) | 129 to 131
CC(C)N1NN=C(c2cn(C)c3ccccc3c2=O)N1 | 134 to 137
NC(=O)C1(c2ccccc2)CCN(CCC2(c3ccc(Cl)c(Cl)c3)CCN(C(=O)c3ccccc3)C2)CC1 (stereo not given) | 87 to 90
O=C(O)CCCCc1ccc([N+](=O)[O-])cn1 | 105 to 107
C=CCSC(C#N)C1=NCCc2cc(OC)c(OC)cc21 (stereo not given) | 146 to 147
CC(C)[C@H](NC(=O)N(C)Cc1cscn1)C(=O)N[C@@H](Cc1ccccc1)C[C@H](O)[C@H](Cc1ccccc1)NC(=O)[C@@H](NC(=O)N(C)Cc1cscn1)C(C)C | 154 to 156
CC(=O)CC(=S)SCc1cn(C(c2ccccc2)(c2ccccc2)c2ccccc2)nn1 | 172 to 173
CN1CC=C(c2c[nH]c3c(Cl)c(Cl)ccc23)CC1 | 246 to 249
OCc1cccc(Nc2nc(Oc3ccccc3)nc(Oc3ccccc3)n2)c1 | 49 to 52
Cc1nc(Sc2ccccn2)sc1CC(=O)O | 140 to 142
NCc1ccccc1C(=O)N[C@H]1CN(S(=O)(=O)O)C1=O | 162 to 165
CCCCC(CC)COc1ccc2c(-c3ccc(CBr)cc3)c3cc(OCC(CC)CCCC)ccc3c(-c3ccc(CBr)cc3)c2c1 (stereo not given) | 105 to 107
CNC(=O)Oc1ccc2c(c1)CCN2 | 109 to 112

Next, values leading:

melting point [°C] | Structure (SMILES)
166 to 168 | Cc1ccc(C(=O)C(O)[C@H]2OC[C@@H](n3cc(I)c(=O)n(C(=O)c4ccc(C)cc4)c3=O)O2)cc1 (stereo not given in full)
223 to 225 | COC(=O)c1c(N)c(-c2ccc(I)cc2)nc2ccc(F)cc12
214 to 216 | CC1(C(=O)c2c[nH]c3ncc(-c4ccc(N5CCNCC5)cc4)nc23)CCCCC1
114 to 116 | O=C1N(N2CCCCC2)c2ccccc2C1(Cc1ccccc1)c1ccccc1 (stereo not given)
205 to 206 | CO[C@@H](CCc1nc(-c2ccccc2)oc1C)c1ccc(C=C2SC(=O)NC2=O)cc1
72.4 | O=C1N(c2cc(Cl)cc(Cl)c2)C(=O)C2(Cc3ccc(Br)cc3)CCC(c3ccccc3)N12 (stereo not given)
140 to 142 | C=CC(C)n1ncc(-c2ccc(S(C)(=O)=O)cc2)c(-c2ccc(F)cc2)c1=O (stereo not given)
135 to 137 | Cn1nccc1-c1ccc2c(ccn2-c2ccc(F)cc2)c1
190 to 192 | CCCSC1=NSc2cc(C)cnc2N1Cc1ccc(-c2ccccc2C#N)cc1
142 | FC(F)(F)c1cccc(-c2cc(C(F)(F)F)n3ncc(I)c3n2)c1
63 to 64 | COC(=O)c1ccc2c(c1)SCCCC2=O
192 to 193 | CCOc1ccc(-c2csc(-c3cccc(C(=O)OC)c3)n2)cc1
212 to 215 | O=C(OC1CCN(c2ccc3[nH]c(=O)ccc3c2)CC1)c1ccccc1
156 to 159 | CC(=O)N[C@@H](C)COc1ccc2nc(-c3ccc(OCC4CC4)c(Cl)c3)oc2c1
76 to 77 | O=Cc1ccc(CSCCN2C(=O)c3ccccc3C2=O)o1
235 to 239 | COc1ccc(-c2[nH]c(-c3ccc(NCCC(C)C)cc3)nc2C(=O)Nc2nccs2)cc1
219 to 221 | N#Cc1cnc2sc(-c3ccccc3)cc2c1Oc1ccc2[nH]ccc2c1

melting point [°C] | Structure (SMILES)
151 to 152 | CCc1sc2nc(=NS(=O)(=O)c3ccc(C)cc3)sn2c1-c1ccc2c(c1)CCCC2
140 | CSc1ncc(C(O)c2ccc(C)nc2)c(O)n1 (stereo not given)
180 to 184 | O=C(O)Cc1ccc(CC2CCCCC2=NO)cc1 (stereo not given)
62 to 64 | COc1ccc(-c2ccccc2)cc1OC1CCCC1
153 to 155 | CCc1cc(SCc2ccc(-c3ccccc3C#N)cc2)n2nccc2n1
82 to 92 | CCOCc1nc2c(N)nc3ccccc3c2n1CC1(NC(=O)OC(C)(C)C)CCCCC1
142 to 143 | Cc1ccccc1CN1CCN(C(=O)c2ccc(N(CCOC(C)C)C(=O)CCl)cc2)CC1
> 300 | Cn1ncc(C(=O)O)c1C(=O)Nc1ccn2nc(-c3ccccc3)nc2c1
198 to 199 | COc1cccc(C(=O)N2CCc3cc(O)c(OC)cc3C2=O)c1
75 | COC(=O)c1ccc(-c2ccc3c(c2)CCN(C2CCN(C4CCC4)C2)C3=O)c(F)c1 (stereo not given)
178 | O=C(Nc1nc2c(ncn2CC(O)CF)c(=O)[nH]1)c1ccccc1 (racemic)
250 to 254 | CNC(=O)C1CCNC(c2ccnc3ccccc23)C1 (stereo not given)
139 to 140 | C=CCN(CC=C)CC(=O)N1c2ccccc2N(C)C(=O)c2cnc(-c3ccccc3)nc21
124 to 126 | CC(O)(CC(=O)O)c1ccc(-c2ccc(Cl)c(Cl)c2)cc1 (stereo not given)
263 | COc1ccccc1-c1nc(N)c(C(N)=O)nc1-c1ccc(=O)n(C(C)C)c1
208 to 209 | COC(c1ccc(Cl)c2nc3n(c12)CCCN3c1ccc(Cl)cc1C(F)(F)F)C1CC1 (stereo not given)
148 to 149 | CCOc1nc(-c2ccc(Cl)cc2)c(CCC(=O)O)o1
